Data taken from ChEMBL document CHEMBL3779857, “Aspidofractinine and Eburnane Alkaloids from a North Borneo Kopsia. Ring-Contracted, Additional Ring-Fused, and Paucidactine-Type Aspidofractinine Alkaloids from K. pauciflora” (J Nat Prod, 2016).

Columns and labels:
Assay type in all cases: functional, cell-based
[1] = Cytotoxicity against human KB/VJ300 cells assessed as cell viability after 72 hrs by MTT assay; details: KB/VJ300, 72 h
[2] = tested on: KB; assay: Cytotoxicity against human vincristine-sensitive KB cells assessed as cell viability after 72 hrs by MTT assay
[3] = tested on: A549; assay: Cytotoxicity against human A549 cells assessed as cell viability after 72 hrs by MTT assay; details: A549, 72 h
[4] = Cytotoxicity against human KB/VJ300 cells assessed as cell viability after 72 hrs by MTT assay in presence of 0.121 uM vincristine; details: KB/VJ300, 72 h
[5] = Cytotoxicity against human HCT116 cells assessed as cell viability after 72 hrs by MTT assay; details: HCT-116, 72 h
[6] = Cytotoxicity against human PC3 cells assessed as cell viability after 72 hrs by MTT assay; details: PC-3, 72 h
[7] = tested on: MCF7; assay: Cytotoxicity against human MCF7 cells assessed as cell viability after 72 hrs by MTT assay; details: MCF7, 72 h

C[C@H]1O[C@@H]2C[C@]13CCCN1CC[C@]4(C(=O)c5ccccc5N24)[C@H]13
IC50 [1]: > 25 µg/mL | IC50 [2]: > 25 µg/mL

CC[C@@]12CCCN3CCc4c(n(c5ccccc45)[C@H](c4ccc5c(c4)N[C@@]46CC[C@]7(CCCN8CC[C@]54[C@@H]87)C[C@H]6C(=O)OC)C1)[C@H]32
IC50 [3]: 33.1 µM | IC50 [4]: 7.8 µM | IC50 [1]: 37.3 µM | IC50 [5]: 12.3 µM | IC50 [2]: 24.2 µM | IC50 [6]: 11.5 µM | IC50 [7]: 15.7 µM

COC(=O)[C@@H]1C[C@]23CC[C@@]14Nc1ccccc1[C@@]41CCN(C4=CC(=O)C[C@H]4C2)[C@@H]31
IC50 [1]: > 25 µg/mL | IC50 [2]: > 25 µg/mL

C[C@@H](O)[C@]12C=Cn3c4c(c5ccccc53)CCN(CCC1)[C@@H]42
IC50 [1]: > 25 µg/mL | IC50 [2]: > 25 µg/mL

COC(=O)[C@@H]1C[C@@]23CCCN4CC[C@@]5(c6ccc([C@@H]7C[C@@]8([C@@H](C)O)CCCN9CCc%10c(n7c7ccccc%107)[C@H]98)cc6N[C@]15CC2)[C@@H]43
IC50 [3]: > 25 µg/mL | IC50 [4]: 13.6 µM | IC50 [1]: > 25 µg/mL | IC50 [5]: 25.1 µM | IC50 [2]: 28.8 µM | IC50 [6]: 15.3 µM | IC50 [7]: 22.3 µM

CC(=O)[C@@]12CCCN3CCc4c(n(c5ccccc45)[C@@H](O)C1)[C@H]32
IC50 [1]: > 25 µg/mL | IC50 [2]: > 25 µg/mL

CC[C@@]12CCCN3CCc4c(n(c5ccccc45)[C@H](c4ccc5c(c4)N[C@@]46CC[C@]7(CCCN8CC[C@]54[C@@H]87)C[C@H]6C(=O)O)C1)[C@H]32
IC50 [3]: > 25 µg/mL | IC50 [4]: > 25 µg/mL | IC50 [1]: > 25 µg/mL | IC50 [5]: > 25 µg/mL | IC50 [2]: > 25 µg/mL | IC50 [6]: > 25 µg/mL | IC50 [7]: > 25 µg/mL

COC(=O)[C@@H]1C[C@]23CC[C@@]14Nc1ccccc1[C@@]41CCN(C=C(C=O)C2)[C@@H]31
IC50 [1]: > 25 µg/mL | IC50 [2]: > 25 µg/mL

COC(=O)N1c2c(OC)cccc2[C@]23C4C(=O)[C@H]5C[C@@]6(CCCN(C4=O)[C@@H]62)CC[C@]513 (stereo partly specified)
IC50 [1]: > 25 µg/mL | IC50 [2]: > 25 µg/mL

COC(=O)[C@@H]1C[C@]23CC[C@@]14Nc1ccccc1[C@@]41CCN(C(=O)C2)[C@@H]31
IC50 [1]: > 25 µg/mL | IC50 [2]: > 25 µg/mL

O=C1OC2C(=O)N3CCC[C@]45CC[C@@]6(Nc7ccccc7[C@@]26[C@@H]34)[C@@H]1C5 (stereo partly specified)
IC50 [1]: > 25 µg/mL | IC50 [2]: > 25 µg/mL

COC(=O)N1c2c(ccc3c2OCO3)[C@@]23C4CN5CCC[C@]6(CC[C@]12[C@](O)(C6)OC4=O)[C@H]53 (stereo partly specified)
IC50 [1]: > 25 µg/mL | IC50 [2]: > 25 µg/mL

O=C1OC2CN3CCC[C@]45CC[C@@]6(Nc7ccccc7[C@@]26[C@@H]34)[C@@H]1C5 (stereo partly specified)
IC50 [1]: > 25 µg/mL | IC50 [2]: > 25 µg/mL

CCO[C@H]1C[C@@]2([C@@H](C)O)CCCN3CCc4c(n1c1ccccc41)[C@H]32
IC50 [1]: > 25 µg/mL | IC50 [2]: > 25 µg/mL

COc1ccc(CCN(C)CCCC(C#N)(c2ccc(OC)c(OC)c2)C(C)C)cc1OC (stereo unspecified)
IC50 [2]: > 25 µg/mL

CC[C@]1(O)C[C@H]2CN(CCc3c([nH]c4ccccc34)[C@@](C(=O)OC)(c3cc4c(cc3OC)N(C=O)[C@H]3[C@@](O)(C(=O)OC)[C@H](OC(C)=O)[C@]5(CC)C=CCN6CC[C@]43[C@@H]65)C2)C1 [VINCRISTINE]
IC50 [1]: 7.5 µM | IC50 [2]: 0.0033 µM
